How the values were obtained:
skeletonema costatum = assay: Toxicity to algae, ISO 10253 (OSPAR HOCNF); type: in vivo; details: amount required to kill or incapacitate half the test population per amount of water
Source text: (§1) According to still other embodiments described herein, a disulfonate salt of 2,4-pentanedione is provided. According to one such embodiment, the salt comprises 2,4-pentanedione-1,5-sodium disulfonate. According to another such embodiment, a disulfonate salt of 2,4-pentanedione has an environmentally acceptable toxicity. As used herein, the term “environmentally acceptable toxicity” means that, when tested according to procedures that are the same as or equivalent to those set forth by the OSPAR Guidelines for Completing the Harmonised Offshore Chemical Notification Format (HOCNF) (References number: 2003-1) that were in effect on Dec. 31, 2004, the salt is determined to have a toxicity of greater than about 10,000 mg/L for an algae (skeletonema costatum), a crustacean (acartia tonsa), a fish (scopthalmus) and a sediment reworker (corophium volutator). […]
(§2) In this Example 3, the toxicity results for the skeletonema costatum were determined according to ISO (International Organization for Standardization) 10253, the protocol for which is known to those of ordinary skill in the art, and is also the protocol required under the above-referenced HOCNF Guidelines. The toxicity results for the acartia tonsa were determined according to ISO 14669, the protocol for which is known to those of ordinary skill in the art. […]

acartia tonsa = assay: Toxicity to crustacean, ISO 14669; type: in vivo; details: amount required to kill or incapacitate half the test population per amount of water
Source text: as §1, §2

scopthalmus = assay: Toxicity to fish, OSPAR Protocols Part B; type: in vivo; details: amount required to kill or incapacitate half the test population per amount of water
Source text: as §1, §2

corophium volutator = assay: Toxicity to sediment reworker, OSPAR Protocols Part B; type: in vivo; details: amount required to kill or incapacitate half the test population per amount of water
Source text: as §1, §2

[1] = Environmentally / nationally acceptable toxicity assessment; details: concluded from result > about 10,000 mg/L for the species tested
Source text: According to still other embodiments described herein, a disulfonate salt of 2,4-pentanedione is provided. According to one such embodiment, the salt comprises 2,4-pentanedione-1,5-sodium disulfonate. According to another such embodiment, a disulfonate salt of 2,4-pentanedione has an environmentally acceptable toxicity. As used herein, the term “environmentally acceptable toxicity” means that, when tested according to procedures that are the same as or equivalent to those set forth by the OSPAR Guidelines for Completing the Harmonised Offshore Chemical Notification Format (HOCNF) (References number: 2003-1) that were in effect on Dec. 31, 2004, the salt is determined to have a toxicity of greater than about 10,000 mg/L for an algae (skeletonema costatum), a crustacean (acartia tonsa), a fish (scopthalmus) and a sediment reworker (corophium volutator).
According to yet another embodiment, a disulfonate salt of 2,4-pentanedione has a “nationally acceptable toxicity.” As used herein, the term “nationally acceptable toxicity” means that when tested according to procedures that are the same as or equivalent to those in effect in a country of interest on Dec. 31, 2004, the salt is determined to have a toxicity acceptable for use in the areas subject to such country's procedures. […]

[2] = Solubility of salt versus free acid on methanol rinse; type: physicochemical; details: compared to 2,4-pentanedione-1,5-disulfonic free acid
Source text: The neutralized product was then rinsed several times with methanol to remove by-product acids, or any salts formed therefrom, while leaving the 2,4-pentanedione-1,5-sodium disulfonate primarily undissolved. […] The rinsed product was dried in a vacuum oven and filtered through a 300 mesh screen to afford a flowing pale orange/red powder. The resulting powder was 2,4-pentanedione-1,5-sodium disulfonate.

In the case of `O=C(CC(=O)CS(=O)(=O)[O-])CS(=O)(=O)[O-].[Na+].[Na+]` [2,4-pentanedione-1,5-sodium disulfonate], the toxicity (skeletonema costatum) is reported as “greater than 10,000 mg/L”, the toxicity (acartia tonsa) is reported as “greater than 10,000 mg/L” and the toxicity (scopthalmus) is reported as “greater than 10,000 mg/L”. The toxicity (corophium volutator) was “greater than 10,000 mg/L”, the toxicity acceptability [1] was “low toxicity” and the “solubility compared to the free acid” value [2] was “significantly less soluble”.
